# In PubChem BioAssay (NCI):
#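 Five concentrations, 48 hours, 96-well plates. The concentration for 50% growth inhibition is given as GI50. Definition used: TGI = concentration required for complete inhibition of growth.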
# How the values were obtained:
# Assay in all cases: DTP human tumour cell line panel, 48 h
# COLO 205 colon = system: COLO 205 colon
# MDA-MB-231 breast = system: MDA-MB-231 breast
# EKVX NSCLC = system: EKVX NSCLC
# OVCAR-5 ovarian = system: OVCAR-5 ovarian
# HT29 colon = system: HT29 colon
# SF-539 CNS = system: SF-539 CNS
# HOP-62 NSCLC = system: HOP-62 NSCLC
# UACC-62 melanoma = system: UACC-62 melanoma
# CCRF-CEM leukemia = system: CCRF-CEM leukemia
# HCT-116 colon = system: HCT-116 colon
# CAKI-1 renal = system: CAKI-1 renal
# TK-10 renal = system: TK-10 renal
# DU-145 prostate = system: DU-145 prostate
# MDA-MB-468 breast = system: MDA-MB-468 breast
# SNB-75 CNS = system: SNB-75 CNS
# SN12C renal = system: SN12C renal
# SR leukemia = system: SR leukemia
# SK-MEL-2 melanoma = system: SK-MEL-2 melanoma
# M14 melanoma = system: M14 melanoma
# MDA-MB-435 = system: MDA-MB-435
# NCI-H226 lung = system: NCI-H226 lung
# OVCAR-4 ovarian = system: OVCAR-4 ovarian
# OVCAR-8 ovarian = system: OVCAR-8 ovarian
# RPMI-8226 leukemia = system: RPMI-8226 leukemia
# NCI-H522 lung = system: NCI-H522 lung
# MCF7 breast = system: MCF7 breast
# IGROV1 ovarian = system: IGROV1 ovarian
# KM12 colon = system: KM12 colon
# SF-295 CNS = system: SF-295 CNS
# ACHN renal = system: ACHN renal
# SNB-19 CNS = system: SNB-19 CNS
# HCC-2998 colon = system: HCC-2998 colon
# HL-60(TB) leukemia = system: HL-60(TB) leukemia
# UACC-257 melanoma = system: UACC-257 melanoma
# RXF 393 renal = system: RXF 393 renal
# UO-31 renal = system: UO-31 renal
# SK-MEL-5 melanoma = system: SK-MEL-5 melanoma
# SK-MEL-28 melanoma = system: SK-MEL-28 melanoma
# MALME-3M melanoma = system: MALME-3M melanoma
# NCI-H460 lung = system: NCI-H460 lung
# A549 NSCLC = system: A549 NSCLC
# K-562 leukemia = system: K-562 leukemia
# BT-549 breast = system: BT-549 breast
# 786-0 renal = system: 786-0 renal
# U251 CNS = system: U251 CNS
# HOP-92 NSCLC = system: HOP-92 NSCLC
# SW-620 colon = system: SW-620 colon
# SK-OV-3 ovarian = system: SK-OV-3 ovarian
# HS 578T breast = system: HS 578T breast
# LOX IMVI melanoma = system: LOX IMVI melanoma
# MOLT-4 leukemia = system: MOLT-4 leukemia
# HCT-15 colon = system: HCT-15 colon
# PC-3 prostate = system: PC-3 prostate
# T-47D breast = system: T-47D breast
# NCI-H23 lung = system: NCI-H23 lung
# A498 renal = system: A498 renal
# OVCAR-3 ovarian = system: OVCAR-3 ovarian
# SF-268 CNS = system: SF-268 CNS
compound,measurement,setting,value
COc1cccc(NC(=O)c2ccc(NC(=O)CCl)s2)c1,GI50,COLO 205 colon,27.9 µM
same,TGI,COLO 205 colon,70.8 µM
same,GI50,MDA-MB-231 breast,15.6 µM
same,TGI,MDA-MB-231 breast,32.6 µM
same,GI50,EKVX NSCLC,26.4 µM
same,TGI,EKVX NSCLC,> 100 µM
same,GI50,OVCAR-5 ovarian,21 µM
same,TGI,OVCAR-5 ovarian,46.8 µM
same,GI50,HT29 colon,20.3 µM
same,TGI,HT29 colon,44.2 µM
same,GI50,SF-539 CNS,16.7 µM
same,TGI,SF-539 CNS,31 µM
same,GI50,HOP-62 NSCLC,56.7 µM
same,TGI,HOP-62 NSCLC,> 100 µM
same,GI50,UACC-62 melanoma,15.3 µM
same,TGI,UACC-62 melanoma,29.2 µM
same,GI50,CCRF-CEM leukemia,6.87 µM
same,TGI,CCRF-CEM leukemia,51.2 µM
same,GI50,HCT-116 colon,22.4 µM
same,TGI,HCT-116 colon,88.9 µM
same,GI50,CAKI-1 renal,16.1 µM
same,TGI,CAKI-1 renal,42 µM
same,GI50,TK-10 renal,> 100 µM
same,TGI,TK-10 renal,> 100 µM
same,GI50,DU-145 prostate,36.4 µM
same,TGI,DU-145 prostate,> 100 µM
same,GI50,MDA-MB-468 breast,14.2 µM
same,TGI,MDA-MB-468 breast,30.6 µM
same,GI50,SNB-75 CNS,11.7 µM
same,TGI,SNB-75 CNS,> 100 µM
same,GI50,SN12C renal,16.1 µM
same,TGI,SN12C renal,33.2 µM
same,GI50,SR leukemia,4.92 µM
same,TGI,SR leukemia,56.2 µM
same,GI50,SK-MEL-2 melanoma,28.6 µM
same,TGI,SK-MEL-2 melanoma,> 100 µM
same,GI50,M14 melanoma,16.3 µM
same,TGI,M14 melanoma,39.4 µM
same,GI50,MDA-MB-435,18.6 µM
same,TGI,MDA-MB-435,60.9 µM
same,GI50,NCI-H226 lung,15.8 µM
same,TGI,NCI-H226 lung,39.2 µM
same,GI50,OVCAR-4 ovarian,39.2 µM
same,TGI,OVCAR-4 ovarian,> 100 µM
same,GI50,OVCAR-8 ovarian,18.5 µM
same,TGI,OVCAR-8 ovarian,39.3 µM
same,GI50,RPMI-8226 leukemia,18.7 µM
same,TGI,RPMI-8226 leukemia,46.8 µM
same,GI50,NCI-H522 lung,13.9 µM
same,TGI,NCI-H522 lung,30.8 µM
same,GI50,MCF7 breast,20.1 µM
same,TGI,MCF7 breast,66.4 µM
same,GI50,IGROV1 ovarian,16.8 µM
same,TGI,IGROV1 ovarian,35.5 µM
same,GI50,KM12 colon,21.2 µM
same,TGI,KM12 colon,54.1 µM
same,GI50,SF-295 CNS,46.6 µM
same,TGI,SF-295 CNS,> 100 µM
same,GI50,ACHN renal,17.4 µM
same,TGI,ACHN renal,35.9 µM
same,GI50,SNB-19 CNS,21.8 µM
same,TGI,SNB-19 CNS,65.8 µM
same,GI50,HCC-2998 colon,47.8 µM
same,TGI,HCC-2998 colon,> 100 µM
same,GI50,HL-60(TB) leukemia,17.4 µM
same,TGI,HL-60(TB) leukemia,99 µM
same,GI50,UACC-257 melanoma,55.3 µM
same,TGI,UACC-257 melanoma,> 100 µM
same,GI50,RXF 393 renal,13.6 µM
same,TGI,RXF 393 renal,36.9 µM
same,GI50,UO-31 renal,13.7 µM
same,TGI,UO-31 renal,27.6 µM
same,GI50,SK-MEL-5 melanoma,17.4 µM
same,TGI,SK-MEL-5 melanoma,34.6 µM
same,GI50,SK-MEL-28 melanoma,20.6 µM
same,TGI,SK-MEL-28 melanoma,52.6 µM
same,GI50,MALME-3M melanoma,12.5 µM
same,TGI,MALME-3M melanoma,28.5 µM
same,GI50,NCI-H460 lung,20.8 µM
same,TGI,NCI-H460 lung,45.2 µM
same,GI50,A549 NSCLC,21.7 µM
same,TGI,A549 NSCLC,53.9 µM
same,GI50,K-562 leukemia,16.4 µM
same,TGI,K-562 leukemia,> 100 µM
same,GI50,BT-549 breast,12.2 µM
same,TGI,BT-549 breast,29.1 µM
same,GI50,786-0 renal,17.1 µM
same,TGI,786-0 renal,33 µM
same,GI50,U251 CNS,16.8 µM
same,TGI,U251 CNS,31.5 µM
same,GI50,HOP-92 NSCLC,15.4 µM
same,TGI,HOP-92 NSCLC,34.7 µM
same,GI50,SW-620 colon,13.4 µM
same,TGI,SW-620 colon,30.5 µM
same,GI50,SK-OV-3 ovarian,27 µM
same,TGI,SK-OV-3 ovarian,66.5 µM
same,GI50,HS 578T breast,20.3 µM
same,TGI,HS 578T breast,61.1 µM
same,GI50,LOX IMVI melanoma,11.4 µM
same,TGI,LOX IMVI melanoma,25.1 µM
same,GI50,MOLT-4 leukemia,12.5 µM
same,TGI,MOLT-4 leukemia,55.8 µM
same,GI50,HCT-15 colon,11.3 µM
same,TGI,HCT-15 colon,40.5 µM
same,GI50,PC-3 prostate,14.9 µM
same,TGI,PC-3 prostate,34.9 µM
same,GI50,T-47D breast,34.5 µM
same,TGI,T-47D breast,> 100 µM
same,GI50,NCI-H23 lung,17.2 µM
same,TGI,NCI-H23 lung,35.5 µM
same,GI50,A498 renal,> 100 µM
same,TGI,A498 renal,> 100 µM
same,GI50,OVCAR-3 ovarian,16.7 µM
same,TGI,OVCAR-3 ovarian,33.8 µM
same,GI50,SF-268 CNS,25 µM
same,TGI,SF-268 CNS,> 100 µM
